Results taken from patent publication US20120309087A1, “CANCER THERAPY” (University Court of The University of Dundee, priority 2006, published 2012).

What was measured:
[1] = test system: ARE-driven luciferase activity in AREc32 cells; experiment: Induction of ARE-driven luciferase activity in stable AREc32 reporter cells; format: cell-based, human; conditions: for CD, concentration of inducting agent that doubled luciferase reporter activity: DMSO set at 1; for effect on luciferase activity in AREc32 cells (in words): sub-lethal doses, no BSO; for Type of modulation: grouping of drugs by effect on luciferase activity
[2] = test system: AKR1C mRNA in AREc32 cells; experiment: AKR1C mRNA in AREc32 cells (TaqMan); conditions: without pre-treatment with BSO; 24 h
[3] = test system: ARE-driven luciferase activity in AREc32 cells; experiment: Antagonism of induced ARE-driven luciferase activity in AREc32 cells; format: cell-based, human; conditions: 5 mM NAC; BSO pre-treated cells; cisplatin, melphalan, chlorambucil, BCNU
[4] = test system: AKR1C and NQO1 protein in MCF7 cells; experiment: AKR1C and NQO1 protein in MCF7 cells (Western blots); format: cell-based, human; conditions: sulforaphane 5 μM + retinoid 0.5 μM, 24 hrs
Procedure: Method: AREc32 cells were seeded out in 96 well plates and treated with DMSO (control), tBHQ (50 μM), tBHQ+BTB09463 (5 μM) or tBHQ+Retinoic acid (1 μM). After 24 hours incubation, cells were washed and lysed before measuring luciferase activity. BTB09463 is 1-{4-[(3,4-dichlorobenzyl)oxy]phenyl}ethan-1-one. […] Method: AREc32 cells were seeded out in 96 well plates and dosed with BTB09463 (2.5, 5 or 10 μM) for 0, 24 or 48 hrs before treatment with tBHQ (50 μM). 24 hours after the addition of tBHQ, cells were washed and lysed before measuring luciferase activity. […] Method: ARE c32 cells were seeded out in 96 well plates and treated with DMSO (control), tBHQ (50 μM), tBHQ+retinoid (0.25, 0.5 and 1 μM). After 24 hours incubation, cells were washed and lysed before measuring luciferase activity. […] See FIG. 16 Method: A. Caco-2 cells were treated with the known ARE-gene inducer sulforaphane (5 μM), either alone or concomitantly with BTB09463 (5 μM) or Retinoic acid (1 μM). After 24 hrs, cell lysates were prepared and Western blotting performed to measure the levels of AKR1C protein. B. MCF7 cells were treated with sulforaphane (5 μM), either alone or concomitantly with BTB09463 (5 μM). After 24 hrs, cell lysates were prepared and Western blots performed to detect the levels of AKR1C and NQO1; GAPDH was used as a loading control in MCF7 cells. […] Method: Caco-2 cells were treated with DMSO (control), BTB09463 (5 μM), sulforaphane (5 μM) or a combination of sulforaphane plus BTB09463. After 24 hrs treatment, cells were harvested and RNA isolated. cDNA for each sample was generated by reverse transcription and subsequently used in real time PCR analysis of gene transcription (TaqMan analysis) for the ARE-driven genes AKR1C1 and NQO1. Data was normalised to the internal control 18S RNA and the relative levels of AKR1C1 and NQO1 calculated using the comparative CT method. […] Method: MCF7 cells were treated with the known ARE-gene inducer sulforaphane (5 μM), either alone or with various retinoids (0.5 μM). After 24 hrs, cell lysates were prepared and Western blots were performed to detect the levels of AKR1C protein present. […] See FIG. 19 Method: ARE reporter cell line AREc23 was seeded into 96 well plates and treated with a previously determined non-toxic concentration of cytotoxic drug. After 24 hours incubation, cells were washed and lysed before measuring luciferase activity. […] See FIG. 20a Method: ARE reporter cell line AREc23 was seeded into 96 well plates and treated with DMSO (control), Carmustine (100 μM), Carmustine+BTB09463 (5 μM) or Carmustine+Retinoic acid (5 μM) After 24 hours incubation, cells were washed and lysed before measuring luciferase activity. […] After 24 hours incubation, cells were washed and lysed before measuring luciferase activity. B. Modified repeat of experiment A, with cells being pretreated with L-buthionine-(SR)-sulfoximine (BSO), an inhibitor of enzymes in the glutathione synthesis pathway. After 24 hours incubation, cells were washed and lysed before measuring luciferase activity. […] Method: Caco-2 cells were treated for 24 hrs with DMSO (control), Carmustine (100 μM), Carmustine+BTB09463 (5 μM). After 24 hrs, cell lysates were prepared and Western blots to detect the levels of AKR1C. […] Method: MCF7 cells were treated for 24 hrs with DMSO (control; Lane 1), Sulforaphane (5 μM) (Lane 2), Carmustine (100 μM) (Lane 3), Carmustine+BTB09463 (5 μM) (Lane 5). (Lane 4 represents experimental conditions irrelevant to the application). After 24 hrs, cell lysates were prepared and Western blots to detect the levels of Nrf2, NQO1 and AKR1C proteins.

[5] = test system: AKR1C1, NQO1, GCLC, GCLM mRNA in A549 cells; experiment: Constitutive mRNA of ARE-driven genes in A549 cells (Taqman); format: cell-based, human; conditions: BTB09463 1, 5, 20, 40 μmol/l or retinoids 0.050, 0.20, 0.50, 2.0 μmol/l, 24 hrs
[6] = test system: MCF7 cells; experiment: cells; format: cell-based
[7] = test system: AKR1C1 and NQO1 mRNA in Caco-2 cells; experiment: AKR1C1 and NQO1 mRNA in Caco-2 cells (TaqMan); format: cell-based, human; conditions: sulforaphane 5 μM, 24 hrs
Procedure: Method: AREc32 cells were seeded out in 96 well plates and treated with DMSO (control), tBHQ (50 μM), tBHQ+BTB09463 (5 μM) or tBHQ+Retinoic acid (1 μM). After 24 hours incubation, cells were washed and lysed before measuring luciferase activity. BTB09463 is 1-{4-[(3,4-dichlorobenzyl)oxy]phenyl}ethan-1-one. […] Method: AREc32 cells were seeded out in 96 well plates and dosed with BTB09463 (2.5, 5 or 10 μM) for 0, 24 or 48 hrs before treatment with tBHQ (50 μM). 24 hours after the addition of tBHQ, cells were washed and lysed before measuring luciferase activity. […] Method: ARE c32 cells were seeded out in 96 well plates and treated with DMSO (control), tBHQ (50 μM), tBHQ+retinoid (0.25, 0.5 and 1 μM). After 24 hours incubation, cells were washed and lysed before measuring luciferase activity. […] See FIG. 16 Method: A. Caco-2 cells were treated with the known ARE-gene inducer sulforaphane (5 μM), either alone or concomitantly with BTB09463 (5 μM) or Retinoic acid (1 μM). After 24 hrs, cell lysates were prepared and Western blotting performed to measure the levels of AKR1C protein. B. MCF7 cells were treated with sulforaphane (5 μM), either alone or concomitantly with BTB09463 (5 μM). After 24 hrs, cell lysates were prepared and Western blots performed to detect the levels of AKR1C and NQO1; GAPDH was used as a loading control in MCF7 cells. […] Method: Caco-2 cells were treated with DMSO (control), BTB09463 (5 μM), sulforaphane (5 μM) or a combination of sulforaphane plus BTB09463. After 24 hrs treatment, cells were harvested and RNA isolated. cDNA for each sample was generated by reverse transcription and subsequently used in real time PCR analysis of gene transcription (TaqMan analysis) for the ARE-driven genes AKR1C1 and NQO1. Data was normalised to the internal control 18S RNA and the relative levels of AKR1C1 and NQO1 calculated using the comparative CT method. […] Method: MCF7 cells were treated with the known ARE-gene inducer sulforaphane (5 μM), either alone or with various retinoids (0.5 μM). After 24 hrs, cell lysates were prepared and Western blots were performed to detect the levels of AKR1C protein present. […] See FIG. 19 Method: ARE reporter cell line AREc23 was seeded into 96 well plates and treated with a previously determined non-toxic concentration of cytotoxic drug. After 24 hours incubation, cells were washed and lysed before measuring luciferase activity. […] See FIG. 20a Method: ARE reporter cell line AREc23 was seeded into 96 well plates and treated with DMSO (control), Carmustine (100 μM), Carmustine+BTB09463 (5 μM) or Carmustine+Retinoic acid (5 μM) After 24 hours incubation, cells were washed and lysed before measuring luciferase activity. […] After 24 hours incubation, cells were washed and lysed before measuring luciferase activity. […]

[8] = test system: A549 cells; experiment: Cytotoxicity in A549 cells (ATP levels, 72 h); format: cell-based, human; conditions: single agent

## OCc1c[nH]c2ccccc12 [I3C]
[1]; AREc32, 24 h
  CD, concentration of inducting agent that doubled luciferase reporter activity: 20 µM

## COS(C)(=O)=O [MMS]
[1]; AREc32, 24 h
  CD, concentration of inducting agent that doubled luciferase reporter activity: 100 µM

## N[C@@H](Cc1ccc(N(CCCl)CCCl)cc1)C(=O)O [Mephalan, melphalan]
[1]; 50 μM BSO 24 h, then 10 μM cisplatin, 20 μM melphalan, 100 μM BCNU or 100 μM chlorambucil 24 h
  induction of luciferase activity after BSO pre-treatment: 5 fold
[1]; 24 h, listed as melphalan
  effect on luciferase activity in AREc32 cells (in words): weak inducers
[1]; 24 h, listed as mephalan
  effect on luciferase activity in AREc32 cells (in words): modestly increased
[1]; AREc32, 24 h, concentration of each drug given in column Conc., mean ± S.D.
  Fold increase (luciferase activity relative to control value): 1.3 ± 0.06
[1]; AREc32, 24 h
  Type of modulation: Weak inducers
[2]
  mRNA level of AKR1C (in words): only slightly increased

## CN(Cc1cnc2nc(N)nc(N)c2n1)c1ccc(C(=O)N[C@@H](CCC(=O)O)C(=O)O)cc1 [Methotrexate]
[1]; 24 h
  effect on luciferase activity in AREc32 cells (in words): no effect
[1]; AREc32, 24 h
  Type of modulation: Inactive

## O=C1c2c(O)ccc(O)c2C(=O)c2c(NCCNCCO)ccc(NCCNCCO)c21 [Mitozantrone]
[1]; 50 μM BSO 24 h before drug, data not shown
  effect of BSO pre-treatment on luciferase activity: did not change luciferase activity significantly
[1]; AREc32, 24 h
  Type of modulation: Weak inducers

## CC(=O)N[C@@H](CS)C(=O)O [NAC]
[3]
  repression of anticancer drug induction of luciferase activity: nearly completely repressed

## S=C(S)N1CCCC1 [PDTC]
[1]; AREc32, 24 h
  CD, concentration of inducting agent that doubled luciferase reporter activity: 20 µM

## CC(=O)O[C@H]1C(=O)[C@@]2(C)[C@H]([C@H](OC(=O)c3ccccc3)[C@]3(O)C[C@H](OC(=O)[C@H](O)[C@@H](NC(=O)c4ccccc4)c4ccccc4)C(C)=C1C3(C)C)[C@]1(OC(C)=O)CO[C@@H]1C[C@@H]2O [Paclitaxol]
[1]; 24 h
  effect on luciferase activity in AREc32 cells (in words): no effect
[1]; AREc32, 24 h
  Type of modulation: Inactive

## CC(=O)OC/C=C(C)/C=C/C=C(C)/C=C/C1=C(C)CCCC1(C)C [Retinyl acetate]
[4]
  sulforaphane-induced AKR1C protein: reduced the expression of sulforaphane-induced AKR1C
[5]
  constitutive expression of AKR1C1 mRNA: inhibited the constitutive expression of AKR1C1 in a concentration-dependent manner
[6]; 72 hrs
  synergy with Bleomycin (cell killing, isobologram): very potent, synergistic increase in cell killing

## C[S+]([O-])CCCCN=C=S (stereo not drawn) [SUL, sulforaphane]
[1]; AREc32, 24 h
  CD, concentration of inducting agent that doubled luciferase reporter activity: 2 µM
[7]
  induction of AKR1C1 mRNA: 12 fold
  induction of NQO1 mRNA: less markedly induced

## S=P(N1CC1)(N1CC1)N1CC1 [Thiotepa]
[1]; 24 h
  effect on luciferase activity in AREc32 cells (in words): no effect
[1]; AREc32, 24 h
  Type of modulation: Inactive

## CC1=C(/C=C/C(C)=C/C=C/C(C)=C/C=O)C(C)(C)CCC1 [all-trans retinal]
[4]
  sulforaphane-induced AKR1C protein: reduced the expression of sulforaphane-induced AKR1C
[5]
  constitutive expression of AKR1C1 mRNA: inhibited the constitutive expression of AKR1C1 in a concentration-dependent manner

## CS(=O)(=O)OCCCCOS(C)(=O)=O [busulphan]
[1]; previously determined non-toxic concentration, 24 hours
  induction of ARE-driven luciferase activity: 3.1 fold

## CCC(=O)OC/C=C(C)/C=C/C=C(C)/C=C/C1=C(C)CCCC1(C)C [vitamin A propionate]
[4]
  sulforaphane-induced AKR1C protein: reduced the expression of sulforaphane-induced AKR1C

## Bleomycin
[8]
  IC50: 55 µM
[6]; single agent
  IC50: 660 µM
